# Active and inactive are the calls of the source. No cut-off for these calls is given here.
# What was measured:
# [1] = Volume of distribution at steady state in mouse at 1 to 3 mg/kg; assay type: ADME, organism-based; parameters: dose 1-3 mg/kg; details: in vivo, read-out: Vdss
# [2] = Fraction unbound in human plasma after 18 to 19 hrs by equilibrium dialysis; assay type: ADME, cell-free
# [3] = Metabolic stability in dog hepatocytes assessed as compound remaining; assay type: ADME, cell-based, Canis lupus familiaris, Hepatocyte
# [4] = biological target: 17-beta-hydroxysteroid dehydrogenase type 1 (Homo sapiens, UniProt P14061); assay: Inhibition of recombinant 17betaHSD1 using [3H]estrone as substrate after 20 mins by flow scintillation analysis
# [5] = Half life in dog at 1 to 3 mg/kg, iv; assay type: ADME, organism-based, Canis lupus familiaris; parameters: dose 1-3 mg/kg, route intravenous; details: in vivo
# [6] = Apparent permeability from apical to basal side of MDCK cells at 10 uM; assay type: ADME, cell-based, Canis lupus familiaris; details: dog
# [7] = biological target: CYP1A2 (Homo sapiens, UniProt P05177); assay: Inhibition of CYP1A2 at 10 uM; assay type: ADME
# [8] = biological target: 11-beta-hydroxysteroid dehydrogenase type 2 (Homo sapiens, UniProt P80365); assay: Inhibition of recombinant 11betaHSD2 using cortisol as substrate after 40 mins by fluorescence spectrophotometry
# [9] = Oral bioavailability in dog at 1 to 3 mg/kg; assay type: ADME, organism-based, Canis lupus familiaris; details: in vivo
# [10] = Oral bioavailability in rat at 1 to 3 mg/kg; assay type: ADME, organism-based; details: in vivo
# [11] = Apparent permeability from basal to apical side of MDCK cells at 10 uM; assay type: ADME, cell-based, Canis lupus familiaris; details: dog
# [12] = test system: L5178Y; assay: Mutagenicity against mouse L5178Y cells by mouse lymphoma assay; assay type: toxicity, cell-based
# [13] = Oral bioavailability in mouse at 1 to 3 mg/kg; assay type: ADME, organism-based; details: in vivo
# [14] = biological target: 11-beta-hydroxysteroid dehydrogenase type 1 (Canis lupus familiaris, UniProt Q5XX84); assay: Inhibition of N-terminal His6-tagged full length dog 11betaHSD1 expressed in baculovirus infected cells using cortisone as substrate after 25 mins by HTRF assay
# [15] = Oral bioavailability in rat; assay type: ADME, organism-based; details: in vivo
# [16] = species: Cavia porcellus; assay: Toxicity against guinea pig by monophasic action potential assay; assay type: organism-based; details: in vivo
# [17] = test system: Mus musculus; assay: Ex-vivo inhibition of 11betaHSD1 in C57Bl6J mouse epididymal adipose tissue using [3H]cortisone as substrate at 50 mg/kg, po after 1 hr by flow scintillation analysis; assay type: functional
# [18] = Half life in rat at 1 to 3 mg/kg, iv; assay type: ADME, organism-based; parameters: dose 1-3 mg/kg, route intravenous; details: in vivo
# [19] = Fraction unbound in rat plasma after 18 to 19 hrs by equilibrium dialysis; assay type: ADME, cell-free
# [20] = Fraction unbound in dog plasma after 18 to 19 hrs by equilibrium dialysis; assay type: ADME, cell-free, Canis lupus familiaris
# [21] = biological target: CYP3A4 (Homo sapiens, UniProt P08684); assay: Inhibition of CYP3A4 at 10 uM; assay type: ADME
# [22] = test system: Mus musculus; assay: Ex-vivo inhibition of 11betaHSD1 in po dosed C57Bl6J mouse epididymal adipose tissue using [3H]cortisone as substrate after 1 hr by flow scintillation analysis; assay type: functional, organism-based
# [23] = test system: Salmonella typhimurium; assay: Mutagenicity against Salmonella typhimurium by Ames test; assay type: toxicity, organism-based; details: salmonella enterica subsp. enterica serovar typhimurium
# [24] = Plasma clearance in rat at 1 to 3 mg/kg; assay type: ADME, organism-based; parameters: dose 1-3 mg/kg
# [25] = test system: Hepatocyte; assay: Metabolic stability in rat hepatocytes assessed as compound remaining; assay type: ADME, cell-based
# [26] = test system: Mus musculus; assay: Ex-vivo inhibition of 11betaHSD1 in C57Bl6J mouse epididymal adipose tissue using [3H]cortisone as substrate at 1500 mg/kg, po after 1 hr by flow scintillation analysis; assay type: functional
# [27] = test system: Liver; assay: Drug uptake in rat liver assessed as covalent binding measured per mg protein at 40 uCi/kg, po at 2 hrs; assay type: ADME, organism-based; details: in vivo
# [28] = Fraction unbound in mouse plasma after 18 to 19 hrs by equilibrium dialysis; assay type: ADME, cell-free
# [29] = Half life in rat at 1 to 3 mg/kg, po; assay type: ADME, organism-based; parameters: dose 1-3 mg/kg, route oral; details: in vivo
# [30] = biological target: CYP2C19 (Homo sapiens, UniProt P33261); assay: Inhibition of CYP2C19 at 10 uM; assay type: ADME
# [31] = biological target: Glucocorticoid receptor (Homo sapiens) (UniProt P04150); assay: Activity at glucocorticoid receptor
# [32] = Intrinsic clearance in rat hepatocytes assessed per 10^6 cells
# [33] = Induction in cytochrome P450 in rat up to 1 month; assay type: ADME
# [34] = test system: Hepatocyte; assay: Metabolic stability in human hepatocytes assessed as compound remaining; assay type: ADME, cell-based
# [35] = Plasma clearance in mouse at 1 to 3 mg/kg; assay type: ADME, organism-based; parameters: dose 1-3 mg/kg
# [36] = biological target: Type-2 angiotensin II receptor (Homo sapiens) (UniProt P50052); assay: Activity at AT2 receptor
# [37] = biological target: CYP2C9 (Homo sapiens, UniProt P11712); assay: Inhibition of CYP2C9 at 10 uM; assay type: ADME
# [38] = Aqueous solubility of the compound after 24 hrs by LC-UV analysis at pH 7.4; assay type: physicochemical; details: aqueous medium
# [39] = Volume of distribution at steady state in dog at 1 to 3 mg/kg; assay type: ADME, organism-based, Canis lupus familiaris; parameters: dose 1-3 mg/kg; details: in vivo, read-out: Vdss
# [40] = biological target: 11-beta-hydroxysteroid dehydrogenase 1 (Mus musculus, UniProt P50172); assay: Inhibition of N-terminal His6-tagged full length mouse 11betaHSD1 expressed in baculovirus infected cells using cortisone as substrate after 25 mins by HTRF assay
# [41] = Octanol-buffer partition coefficient, log D of the compound after 30 mins by shake flask method at pH 7.4; details: octanol/buffer
# [42] = biological target: CYP2D6 (Homo sapiens, UniProt P10635); assay: Inhibition of CYP2D6 at 10 uM; assay type: ADME
# [43] = Inhibition of N-terminal His6-tagged full length cynomolgus monkey 11betaHSD1 expressed in baculovirus infected cells using cortisone as substrate after 25 mins by HTRF assay; parameters: species or system Macaca fascicularis
# [44] = biological target: 17-beta-hydroxysteroid dehydrogenase type 3 (Homo sapiens, UniProt P37058); assay: Inhibition of recombinant 17betaHSD3 using [3H]androstenedione as substrate after 90 mins by flow scintillation analysis
# [45] = biological target: 11-beta-hydroxysteroid dehydrogenase 1 (Rattus norvegicus, UniProt P16232); assay: Inhibition of N-terminal His6-tagged full length rat 11betaHSD1 expressed in baculovirus infected cells using cortisone as substrate after 25 mins by HTRF assay
# [46] = in vivo; details: rat
# [47] = test system: Liver; assay: Drug uptake in rat liver assessed as covalent binding measured per mg protein at 40 uCi/kg, po at 24 hrs; assay type: ADME, organism-based; details: in vivo
# [48] = Half life in mouse at 1 to 3 mg/kg, po; assay type: ADME, organism-based; parameters: dose 1-3 mg/kg, route oral; details: in vivo
# [49] = Volume of distribution at steady state in rat at 1 to 3 mg/kg; assay type: ADME, organism-based; parameters: dose 1-3 mg/kg; details: in vivo, read-out: Vdss
# [50] = Half life in mouse at 1 to 3 mg/kg, iv; assay type: ADME, organism-based; parameters: dose 1-3 mg/kg, route intravenous; details: in vivo
# [51] = Plasma clearance in dog at 1 to 3 mg/kg; assay type: ADME, organism-based, Canis lupus familiaris; parameters: dose 1-3 mg/kg
# [52] = Half life in dog at 1 to 3 mg/kg, po; assay type: ADME, organism-based, Canis lupus familiaris; parameters: dose 1-3 mg/kg, route oral; details: in vivo
# [53] = biological target: Gastrin/cholecystokinin type B receptor (Homo sapiens) (UniProt P32239); assay: Activity at CCK2 receptor
# [54] = biological target: Mineralocorticoid receptor (Homo sapiens) (UniProt P08235); assay: Activity at mineralocorticoid receptor
# [55] = test system: Plasma; assay: Drug uptake in rat plasma assessed as covalent binding measured at 40 uCi/kg, po at 24 hrs; assay type: ADME, organism-based; details: in vivo
# Glucocorticoid receptor (Homo sapiens), sequence (P04150 whole entry): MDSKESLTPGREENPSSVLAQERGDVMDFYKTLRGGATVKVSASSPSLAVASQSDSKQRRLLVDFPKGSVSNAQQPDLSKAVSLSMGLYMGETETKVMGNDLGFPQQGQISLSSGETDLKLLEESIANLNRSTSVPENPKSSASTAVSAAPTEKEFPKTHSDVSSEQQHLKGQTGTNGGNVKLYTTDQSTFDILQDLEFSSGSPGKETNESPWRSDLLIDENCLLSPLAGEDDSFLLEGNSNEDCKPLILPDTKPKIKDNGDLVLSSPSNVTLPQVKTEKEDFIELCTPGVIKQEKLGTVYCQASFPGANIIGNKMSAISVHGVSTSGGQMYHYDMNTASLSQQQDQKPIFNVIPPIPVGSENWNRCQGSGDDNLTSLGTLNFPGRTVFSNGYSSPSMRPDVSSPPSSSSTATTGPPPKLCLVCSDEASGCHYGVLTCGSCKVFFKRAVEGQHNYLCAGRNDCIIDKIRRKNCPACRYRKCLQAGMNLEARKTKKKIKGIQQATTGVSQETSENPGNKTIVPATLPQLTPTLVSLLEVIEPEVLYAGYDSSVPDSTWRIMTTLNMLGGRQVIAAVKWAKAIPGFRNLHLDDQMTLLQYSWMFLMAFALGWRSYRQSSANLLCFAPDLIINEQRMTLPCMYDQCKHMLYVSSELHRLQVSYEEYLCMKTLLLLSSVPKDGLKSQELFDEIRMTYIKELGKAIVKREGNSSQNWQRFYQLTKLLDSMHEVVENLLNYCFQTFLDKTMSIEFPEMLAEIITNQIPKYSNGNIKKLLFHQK
# 11-beta-hydroxysteroid dehydrogenase type 2, sequence (P80365 whole entry): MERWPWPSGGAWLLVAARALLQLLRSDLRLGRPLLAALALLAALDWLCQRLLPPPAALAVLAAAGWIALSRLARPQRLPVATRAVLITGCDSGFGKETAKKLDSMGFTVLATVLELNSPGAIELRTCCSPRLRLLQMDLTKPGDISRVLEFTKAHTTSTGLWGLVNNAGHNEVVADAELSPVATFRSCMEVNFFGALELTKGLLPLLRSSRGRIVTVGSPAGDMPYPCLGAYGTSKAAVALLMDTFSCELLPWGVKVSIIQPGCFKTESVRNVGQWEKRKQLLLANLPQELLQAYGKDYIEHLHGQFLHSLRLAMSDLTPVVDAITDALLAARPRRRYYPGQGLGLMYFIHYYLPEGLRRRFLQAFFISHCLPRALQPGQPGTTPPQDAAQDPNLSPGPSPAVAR
# 17-beta-hydroxysteroid dehydrogenase type 1, sequence (P14061 whole entry): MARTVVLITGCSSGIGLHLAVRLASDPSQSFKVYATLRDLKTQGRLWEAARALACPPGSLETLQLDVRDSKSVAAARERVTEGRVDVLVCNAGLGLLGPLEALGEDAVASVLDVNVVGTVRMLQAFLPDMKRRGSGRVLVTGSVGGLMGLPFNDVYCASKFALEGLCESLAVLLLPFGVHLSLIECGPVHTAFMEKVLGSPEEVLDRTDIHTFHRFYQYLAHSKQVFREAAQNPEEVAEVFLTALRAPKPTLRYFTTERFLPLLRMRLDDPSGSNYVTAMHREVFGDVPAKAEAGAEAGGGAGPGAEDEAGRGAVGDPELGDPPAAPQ
# CYP2C19, sequence (P33261 whole entry): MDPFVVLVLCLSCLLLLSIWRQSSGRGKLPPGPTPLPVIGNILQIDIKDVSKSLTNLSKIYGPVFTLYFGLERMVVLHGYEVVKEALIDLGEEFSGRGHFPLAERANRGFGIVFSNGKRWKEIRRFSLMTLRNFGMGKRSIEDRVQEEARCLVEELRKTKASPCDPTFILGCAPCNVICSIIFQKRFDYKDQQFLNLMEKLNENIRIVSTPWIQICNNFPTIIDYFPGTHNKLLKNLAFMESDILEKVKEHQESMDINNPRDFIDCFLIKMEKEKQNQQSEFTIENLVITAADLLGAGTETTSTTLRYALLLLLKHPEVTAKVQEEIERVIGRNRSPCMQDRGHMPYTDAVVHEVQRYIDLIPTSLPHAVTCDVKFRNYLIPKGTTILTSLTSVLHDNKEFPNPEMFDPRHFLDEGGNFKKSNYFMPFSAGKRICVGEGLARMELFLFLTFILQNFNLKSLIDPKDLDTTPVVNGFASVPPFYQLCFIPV
# CYP3A4, sequence (P08684 whole entry): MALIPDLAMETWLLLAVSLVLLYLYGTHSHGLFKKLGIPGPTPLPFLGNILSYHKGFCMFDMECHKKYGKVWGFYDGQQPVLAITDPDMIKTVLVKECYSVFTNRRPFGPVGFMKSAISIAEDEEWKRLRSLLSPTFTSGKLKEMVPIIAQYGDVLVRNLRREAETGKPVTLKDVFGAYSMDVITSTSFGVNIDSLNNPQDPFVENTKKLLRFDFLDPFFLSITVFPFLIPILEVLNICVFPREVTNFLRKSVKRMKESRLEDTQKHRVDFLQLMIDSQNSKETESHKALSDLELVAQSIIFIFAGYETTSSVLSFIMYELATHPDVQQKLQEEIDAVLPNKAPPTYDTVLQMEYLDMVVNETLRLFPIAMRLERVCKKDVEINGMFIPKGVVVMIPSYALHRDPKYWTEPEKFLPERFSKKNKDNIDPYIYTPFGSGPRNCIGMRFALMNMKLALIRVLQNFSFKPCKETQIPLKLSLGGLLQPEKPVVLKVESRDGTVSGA
# CYP2D6, sequence (P10635 whole entry): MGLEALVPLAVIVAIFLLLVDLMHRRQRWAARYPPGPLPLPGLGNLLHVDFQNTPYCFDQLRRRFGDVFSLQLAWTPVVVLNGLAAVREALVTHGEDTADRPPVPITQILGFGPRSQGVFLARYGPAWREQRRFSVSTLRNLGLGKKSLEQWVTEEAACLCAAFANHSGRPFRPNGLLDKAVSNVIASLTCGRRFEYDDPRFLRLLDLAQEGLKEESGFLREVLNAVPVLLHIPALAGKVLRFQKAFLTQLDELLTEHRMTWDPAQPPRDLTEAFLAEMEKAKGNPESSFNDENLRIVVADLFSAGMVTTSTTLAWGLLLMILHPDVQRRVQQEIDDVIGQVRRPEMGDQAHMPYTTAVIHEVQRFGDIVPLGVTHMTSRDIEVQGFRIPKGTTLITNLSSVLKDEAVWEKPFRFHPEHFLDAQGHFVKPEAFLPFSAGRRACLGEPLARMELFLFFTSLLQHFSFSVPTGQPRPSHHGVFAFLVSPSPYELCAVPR
# 11-beta-hydroxysteroid dehydrogenase 1 (Rattus norvegicus, UniProt P16232), sequence (P16232 whole entry): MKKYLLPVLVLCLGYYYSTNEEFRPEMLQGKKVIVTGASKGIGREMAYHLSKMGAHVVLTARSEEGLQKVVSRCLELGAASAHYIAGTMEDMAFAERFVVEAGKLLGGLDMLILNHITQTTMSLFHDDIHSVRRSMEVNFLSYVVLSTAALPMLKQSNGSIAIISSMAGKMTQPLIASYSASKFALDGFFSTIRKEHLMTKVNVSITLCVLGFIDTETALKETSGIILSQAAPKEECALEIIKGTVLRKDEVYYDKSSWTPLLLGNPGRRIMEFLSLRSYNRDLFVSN
# Type-2 angiotensin II receptor (Homo sapiens), sequence (P50052 whole entry): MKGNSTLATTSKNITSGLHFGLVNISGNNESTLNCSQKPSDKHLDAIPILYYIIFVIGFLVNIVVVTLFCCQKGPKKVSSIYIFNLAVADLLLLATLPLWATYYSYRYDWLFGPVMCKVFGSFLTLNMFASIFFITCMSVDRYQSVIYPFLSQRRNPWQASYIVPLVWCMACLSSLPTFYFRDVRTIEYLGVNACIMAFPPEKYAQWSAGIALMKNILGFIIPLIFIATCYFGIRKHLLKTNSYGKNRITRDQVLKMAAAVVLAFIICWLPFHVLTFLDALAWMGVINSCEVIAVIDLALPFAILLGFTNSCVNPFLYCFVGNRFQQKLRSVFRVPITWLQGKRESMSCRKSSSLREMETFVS
# 17-beta-hydroxysteroid dehydrogenase type 3, sequence (P37058 whole entry): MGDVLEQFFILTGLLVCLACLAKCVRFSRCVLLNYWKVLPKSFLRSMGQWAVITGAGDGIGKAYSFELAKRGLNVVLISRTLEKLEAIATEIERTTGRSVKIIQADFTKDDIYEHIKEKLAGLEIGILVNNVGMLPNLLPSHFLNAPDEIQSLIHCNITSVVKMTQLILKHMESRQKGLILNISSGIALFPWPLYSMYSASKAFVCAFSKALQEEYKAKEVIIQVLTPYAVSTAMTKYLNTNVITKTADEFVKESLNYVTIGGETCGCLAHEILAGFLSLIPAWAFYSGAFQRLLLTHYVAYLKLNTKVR
# 11-beta-hydroxysteroid dehydrogenase 1 (Mus musculus, UniProt P50172), sequence (P50172 whole entry): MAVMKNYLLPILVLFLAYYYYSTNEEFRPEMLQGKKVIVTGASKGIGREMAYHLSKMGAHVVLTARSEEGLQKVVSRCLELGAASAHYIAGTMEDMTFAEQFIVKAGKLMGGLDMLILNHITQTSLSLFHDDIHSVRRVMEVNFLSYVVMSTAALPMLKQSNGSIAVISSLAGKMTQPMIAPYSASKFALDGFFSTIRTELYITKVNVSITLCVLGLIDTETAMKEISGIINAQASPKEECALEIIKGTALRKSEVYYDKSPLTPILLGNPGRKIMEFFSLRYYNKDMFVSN
# CYP1A2, sequence (P05177 whole entry): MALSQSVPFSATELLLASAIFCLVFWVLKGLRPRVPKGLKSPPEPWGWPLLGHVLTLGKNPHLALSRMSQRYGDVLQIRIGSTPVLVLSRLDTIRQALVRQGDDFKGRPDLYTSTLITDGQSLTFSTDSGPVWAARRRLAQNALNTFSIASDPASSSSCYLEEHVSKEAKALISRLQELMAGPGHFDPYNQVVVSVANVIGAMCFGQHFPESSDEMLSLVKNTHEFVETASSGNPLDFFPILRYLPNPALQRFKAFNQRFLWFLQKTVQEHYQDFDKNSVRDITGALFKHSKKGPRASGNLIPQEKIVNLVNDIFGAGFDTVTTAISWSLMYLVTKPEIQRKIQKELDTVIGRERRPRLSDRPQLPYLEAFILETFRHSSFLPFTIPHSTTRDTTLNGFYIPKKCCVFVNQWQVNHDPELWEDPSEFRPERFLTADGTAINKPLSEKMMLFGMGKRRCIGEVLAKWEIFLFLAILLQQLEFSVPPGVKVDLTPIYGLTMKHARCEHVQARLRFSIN
structure (smiles),measurement,setting,value
CCCSc1nc(N2CCC[C@@H](CC(=O)O)C2)ccc1C(=O)NC1CCCCC1 [AZD-4017],Vd,[1],4.2 L/kg
same,fraction unbound,[2],0.008
same,Stability,[3],34%
same,IC50,[4],> 30 µM
same,half-life,[5],6.2 h
same,Papp A→B at 10 µM,[6],29 ×10⁻⁶ cm/s
same,inhibition at 10 µM,[7],< 25%
same,IC50,[8],> 30 µM
same,bioavailability,[9],60%
same,bioavailability,[10],> 100%
same,Papp B→A at 10 µM,[11],22 ×10⁻⁶ cm/s
same,Activity,[12],Non-toxic
same,bioavailability,[13],> 100%
same,IC50,[14],3.77 µM
same,bioavailability,[15],> 100%
same,Activity,[16],Non-toxic
same,inhibition in vivo at 50 mg/kg,[17],50%
same,half-life,[18],4.4 h
same,fraction unbound,[19],0.017
same,fraction unbound,[20],0.023
same,inhibition at 10 µM,[21],< 25%
same,inhibition,[22],Dose-dependent effect
same,Activity,[23],Non-toxic
same,clearance,[24],9 mL/min/kg
same,Stability,[25],66%
same,Imax,[26],70%
same,Drug uptake,[27],< 25 pmol
same,fraction unbound,[28],0.029
same,half-life,[29],4.7 h
same,inhibition at 10 µM,[30],< 25%
same,Activity,[31],inactive
same,hepatocyte CLint,[32],< 2 µL/min/1e6 cells
same,Activity,[33],Non-toxic
same,Stability,[34],93%
same,clearance,[35],16 mL/min/kg
same,Activity,[36],Active
same,inhibition at 10 µM,[37],< 25%
same,solubility at 24 h,[38],144 µM
same,Vd,[39],0.9 L/kg
same,IC50,[40],0.75 µM
same,logD at 0.5 h,[41],2.2
same,inhibition at 10 µM,[42],< 25%
same,IC50,[43],0.029 µM
same,IC50,[44],> 30 µM
same,IC50,[45],4.06 µM
same,clearance,[46],9 mL/min/kg
same,Drug uptake,[47],Not Active
same,half-life,[48],3.2 h
same,Vd,[49],2.6 L/kg
same,half-life,[50],4.2 h
same,clearance,[51],7 mL/min/kg
same,half-life,[52],4.9 h
same,Activity,[53],Active
same,Activity,[54],inactive
same,Drug uptake,[55],Not Active
